Measured values from patent US20250147039A1, “Compounds for complexation of rare earth elements and/or s-, p-, d- block metals, their coordination compounds, peptide conjugates, method of their preparation and use thereof” (USTAV ORGANICKE CHEMIE A BIOCHEMIE AV CR V.V.I., priority 2021, published 2025).

Legend:
[1] = Formation of 1,5-cz-[M(Lig)] from Lig and M^III ions (metal dependent click-zip) (Charts 4, 5); assay type: physicochemical; details: MOPS/NaOH buffer pH 7.0; for conversion to 1,5-cz-[M(Lig)], Sc^III / conversion to 1,5-cz-[M(Lig)], Y^III: TD728, TD827 in 50% i-PrOH; for conversion to 1,5-cz-[M(Lig)], Y^III: TD714 sum of two diastereoisomers
[2] = Formation of 1,5-cz-[Ln(Lig)] from Lig and Ln^III ions (metal dependent click-zip), MOPS/NaOH buffer pH 7.0, analytical HPLC (Charts 1, 2); details: MOPS/NaOH buffer pH 7.0

Structure (SMILES): CC(C)(C#Cc1cccc(CN2CCN(CC(=O)O)CCN(Cc3cccc(CN=[N+]=[N-])n3)CCN(CC(=O)O)CC2)n1)NC(=O)OC(C)(C)C [TD1105]
- conversion to 1,5-cz-[Ln(Lig)] with hydrolysed group in the side chain, Sc^III ([1]; 1 week at 80° C.): 60%
- conversion to 1,5-cz-[Ln(Lig)] with hydrolysed group in the side chain, Y^III ([1]; 1 week at 80° C.): 87%
- conversion to 1,5-cz-[M(Lig)], Sc^III ([1]; 1 week at 80° C.): 0%
- conversion to 1,5-cz-[M(Lig)], Y^III ([1]; 1 week at 80° C.): 0%
- conversion to 1,5-cz-[Ln(Lig)] with hydrolysed group in the side chain, Sc^III ([1]; 1 hour at 80° C.): 0%
- conversion to 1,5-cz-[Ln(Lig)] with hydrolysed group in the side chain, Y^III ([1]; 1 hour at 80° C.): 1%
- conversion to 1,5-cz-[M(Lig)], Sc^III ([1]; 1 hour at 80° C.): 0%
- conversion to 1,5-cz-[M(Lig)], Y^III ([1]; 1 hour at 80° C.): 2%
- conversion to 1,5-cz-[Ln(Lig)] with hydrolysed group in the side chain, Ce^III ([2]; after 1 week at 80° C.): 8%
- conversion to 1,5-cz-[Ln(Lig)], Ce^III ([2]; after 1 week at 80° C.): 0%
- conversion to 1,5-cz-[Ln(Lig)] with hydrolysed group in the side chain, Ce^III ([2]; after 1 hour at 80° C.): 0%
- conversion to 1,5-cz-[Ln(Lig)], Ce^III ([2]; after 1 hour at 80° C.): 0%
- conversion to 1,5-cz-[Ln(Lig)] with hydrolysed group in the side chain, Dy^III ([2]; after 1 week at 80° C.): 82%
- conversion to 1,5-cz-[Ln(Lig)], Dy^III ([2]; after 1 week at 80° C.): 0%
- conversion to 1,5-cz-[Ln(Lig)] with hydrolysed group in the side chain, Dy^III ([2]; after 1 hour at 80° C.): 0%
- conversion to 1,5-cz-[Ln(Lig)], Dy^III ([2]; after 1 hour at 80° C.): 2%
- conversion to 1,5-cz-[Ln(Lig)] with hydrolysed group in the side chain, Er^III ([2]; after 1 week at 80° C.): 92%
- conversion to 1,5-cz-[Ln(Lig)], Er^III ([2]; after 1 week at 80° C.): 1%
- conversion to 1,5-cz-[Ln(Lig)] with hydrolysed group in the side chain, Er^III ([2]; after 1 hour at 80° C.): 2%
- conversion to 1,5-cz-[Ln(Lig)], Er^III ([2]; after 1 hour at 80° C.): 4%
- conversion to 1,5-cz-[Ln(Lig)] with hydrolysed group in the side chain, Eu^III ([2]; after 1 week at 80° C.): 49%
- conversion to 1,5-cz-[Ln(Lig)], Eu^III ([2]; after 1 week at 80° C.): 1%
- conversion to 1,5-cz-[Ln(Lig)] with hydrolysed group in the side chain, Eu^III ([2]; after 1 hour at 80° C.): 0%
- conversion to 1,5-cz-[Ln(Lig)], Eu^III ([2]; after 1 hour at 80° C.): 1%
- conversion to 1,5-cz-[Ln(Lig)] with hydrolysed group in the side chain, Gd^III ([2]; after 1 week at 80° C.): 57%
- conversion to 1,5-cz-[Ln(Lig)], Gd^III ([2]; after 1 week at 80° C.): 2%
- conversion to 1,5-cz-[Ln(Lig)] with hydrolysed group in the side chain, Gd^III ([2]; after 1 hour at 80° C.): 0%
- conversion to 1,5-cz-[Ln(Lig)], Gd^III ([2]; after 1 hour at 80° C.): 1%
- conversion to 1,5-cz-[Ln(Lig)] with hydrolysed group in the side chain, Ho^III ([2]; after 1 week at 80° C.): 87%
- conversion to 1,5-cz-[Ln(Lig)], Ho^III ([2]; after 1 week at 80° C.): 1%
- conversion to 1,5-cz-[Ln(Lig)] with hydrolysed group in the side chain, Ho^III ([2]; after 1 hour at 80° C.): 1%
- conversion to 1,5-cz-[Ln(Lig)], Ho^III ([2]; after 1 hour at 80° C.): 3%
- conversion to 1,5-cz-[Ln(Lig)] with hydrolysed group in the side chain, La^III ([2]; after 1 week at 80° C.): 11%
- conversion to 1,5-cz-[Ln(Lig)], La^III ([2]; after 1 week at 80° C.): 0%
- conversion to 1,5-cz-[Ln(Lig)] with hydrolysed group in the side chain, La^III ([2]; after 1 hour at 80° C.): 0%
- conversion to 1,5-cz-[Ln(Lig)], La^III ([2]; after 1 hour at 80° C.): 0%
- conversion to 1,5-cz-[Ln(Lig)] with hydrolysed group in the side chain, Lu^III ([2]; after 1 week at 80° C.): 98%
- conversion to 1,5-cz-[Ln(Lig)], Lu^III ([2]; after 1 week at 80° C.): 1%
- conversion to 1,5-cz-[Ln(Lig)] with hydrolysed group in the side chain, Lu^III ([2]; after 1 hour at 80° C.): 9%
- conversion to 1,5-cz-[Ln(Lig)], Lu^III ([2]; after 1 hour at 80° C.): 8%
- conversion to 1,5-cz-[Ln(Lig)] with hydrolysed group in the side chain, Nd^III ([2]; after 1 week at 80° C.): 23%
- conversion to 1,5-cz-[Ln(Lig)], Nd^III ([2]; after 1 week at 80° C.): 0%
- conversion to 1,5-cz-[Ln(Lig)] with hydrolysed group in the side chain, Nd^III ([2]; after 1 hour at 80° C.): 0%
- conversion to 1,5-cz-[Ln(Lig)], Nd^III ([2]; after 1 hour at 80° C.): 1%
- conversion to 1,5-cz-[Ln(Lig)] with hydrolysed group in the side chain, Pr^III ([2]; after 1 week at 80° C.): 21%
- conversion to 1,5-cz-[Ln(Lig)], Pr^III ([2]; after 1 week at 80° C.): 0%
- conversion to 1,5-cz-[Ln(Lig)] with hydrolysed group in the side chain, Pr^III ([2]; after 1 hour at 80° C.): 0%
- conversion to 1,5-cz-[Ln(Lig)], Pr^III ([2]; after 1 hour at 80° C.): 0%
- conversion to 1,5-cz-[Ln(Lig)] with hydrolysed group in the side chain, Sm^III ([2]; after 1 week at 80° C.): 44%
- conversion to 1,5-cz-[Ln(Lig)], Sm^III ([2]; after 1 week at 80° C.): 1%
- conversion to 1,5-cz-[Ln(Lig)] with hydrolysed group in the side chain, Sm^III ([2]; after 1 hour at 80° C.): 0%
- conversion to 1,5-cz-[Ln(Lig)], Sm^III ([2]; after 1 hour at 80° C.): 1%
- conversion to 1,5-cz-[Ln(Lig)] with hydrolysed group in the side chain, Tb^III ([2]; after 1 week at 80° C.): 74%
- conversion to 1,5-cz-[Ln(Lig)], Tb^III ([2]; after 1 week at 80° C.): 1%
- conversion to 1,5-cz-[Ln(Lig)] with hydrolysed group in the side chain, Tb^III ([2]; after 1 hour at 80° C.): 0%
- conversion to 1,5-cz-[Ln(Lig)], Tb^III ([2]; after 1 hour at 80° C.): 2%
- conversion to 1,5-cz-[Ln(Lig)] with hydrolysed group in the side chain, Tm^III ([2]; after 1 week at 80° C.): 94%
- conversion to 1,5-cz-[Ln(Lig)], Tm^III ([2]; after 1 week at 80° C.): 1%
- conversion to 1,5-cz-[Ln(Lig)] with hydrolysed group in the side chain, Tm^III ([2]; after 1 hour at 80° C.): 3%
- conversion to 1,5-cz-[Ln(Lig)], Tm^III ([2]; after 1 hour at 80° C.): 5%
- conversion to 1,5-cz-[Ln(Lig)] with hydrolysed group in the side chain, Yb^III ([2]; after 1 week at 80° C.): 97%
- conversion to 1,5-cz-[Ln(Lig)], Yb^III ([2]; after 1 week at 80° C.): 1%
- conversion to 1,5-cz-[Ln(Lig)] with hydrolysed group in the side chain, Yb^III ([2]; after 1 hour at 80° C.): 5%
- conversion to 1,5-cz-[Ln(Lig)], Yb^III ([2]; after 1 hour at 80° C.): 7%
